Experimental data: patent US20190202836A1, “SELECTIVE DUAL INHIBITORS OF PI3 DELTA AND GAMMA PROTEIN KINASES” (Rhizen Pharmaceuticals SA, priority 2014, published 2019)

Key:
[1] = Plasma protein binding (equilibrium dialysis), dog; format: in vitro ADME; details: pH 7.4, 37° C.
Description: Below is provided the procedure for measuring plasma protein binding (using an equilibrium dialysis method). 745 μL of plasma was transferred into a 2 ml micro centrifuge tube. To that 5 μL of Compound A1 (150 μM) was added. Samples were mixed in the table top vortexer for 2 minutes. 50 μL plasma (n=2) was transferred in a pre-labeled 1.5 mL micro centrifuge tube treated as 0 hour sample.
The remaining 650 μL plasma sample were incubated for 30 minutes at 37° C. in a water bath. After 30 minute incubation, 50 μL plasma (n=2) was removed in a pre-labelled 1.5 mL micro centrifuge tube treated as 0.5 hour sample. 200 μL of the plasma sample (n=2) was transferred into the sample chamber which was indicated by the red ring. The red insert was placed into the base plate and 350 μL of buffer was transferred into the buffer chamber. Plates were incubated at 37° C. at approximately 100 RPM on an orbital shaker or 20 RPM on an up-and-down shaker for 4 hours. 50 μL of post dialysis-sample from the buffer and the plasma chambers were transferred into a pre-labelled micro centrifuged tube. 50 μL of plasma was added to the buffer samples and an equal volume of buffer (KH2PO4 Buffer pH 7.4) to the collected plasma samples. 150 μL of methanol containing internal standard (Tolbutamide 250 ng/ml) was added to precipitate the protein and release compound. […]

[2] = Metabolic stability in mouse liver microsomes; format: in vitro ADME; details: 1 μM test item, 60 minutes, 37° C., NADPH
Description: (§1) Metabolic stability studies were conducted on Compounds A, A1, and A2 as well as Example 128 of WO 2012/151525 using mouse, rat, dog, monkey, and human liver microsomes. The protocol for the studies with mouse, rat, and human liver microsomes (all from BD Gentest, USA) is provided below. 0.4 mg protein was preincubated with 2 mM NADPH (cofactor) in phosphate buffer (pH-7.4) for 15 minutes at 37° C. and then added with 1 μM test item and incubated further for 60 minutes in triplicate. The reaction mixture was terminated with methanol containing an internal standard and centrifuged further to analyze the test item remaining in the supernatant by LC-MS/MS. The percent parent compound remaining was calculated in comparison with similar samples terminated at 0 minutes.

Female Wistar rats [3] = experiment: Assay 7: Lipopolysaccharide induced pulmonary neutrophilia in female Wistar rat model; format: in vivo; details: 10 mg/kg, oral, LPS intratracheally, BAL fluid 6 hours after LPS
Description: After the quarantine period, fasted animals were randomized and divided into various groups depending on their body weights. The test compound (Compound A1) was prepared as a suspension in a vehicle consisting of 0.5% methylcellulose in which Tween 80 as a suspending agent. The compound or vehicle was administered by oral gavage at a volume of 10 mL/kg. Female Wistar rats were anaesthetized with ketamine and LPS solution was administered intratracheally one hour after compound administration at a dose of 1 mg/kg. 6 hours after LPS instillation, animals were exsanguinated under anaesthesia, and then the trachea was cannulated and the lungs were lavaged with 5 ml aliquots of heparinised PBS (1 unit/ml) four times through a tracheal cannula (total volume 20 mL). Bronchoalveolar lavage (BAL) fluid was stored at 2-8° C. until assayed for total cell and differential leukocyte count. Bronchioalveolar fluid was centrifuged (500×g for 10 minutes) and the resulting cell pellet was resuspended in 0.5 ml of heparinised saline. The total numbers of white blood cells were determined in BAL fluid or blood by using a blood cell counter and was adjusted to 1×10^6 cell/ml. Differential cell count was calculated manually. […] The number of each cell type among 300 white blood cells in the cell smear was determined and expressed as a percentage. The number of […] in each BALf or blood was calculated.

Female Wistar rats [4] = experiment: Assay 11: Collagen induced arthritis (CIA) in Wistar rats; format: in vivo; details: rat CIA, dosed therapeutically, 10 mg/kg/QD
[5] = Metabolic stability in monkey liver microsomes; format: in vitro ADME
Description: as §1

PI3Kδ = PI3Kδ (Homo sapiens, UniProt O00329); experiment: Assay 4: anti-FcεR1 induced CD63 expression in basophils from human whole blood; format: cell-based; parameters: endogenous in cells; host or cells: basophils in human whole blood; details: n=1, read-out: EC50 for FcεR1 (PI3K δ), CD63 positive basophils
Chain of PI3Kδ (O00329 whole entry): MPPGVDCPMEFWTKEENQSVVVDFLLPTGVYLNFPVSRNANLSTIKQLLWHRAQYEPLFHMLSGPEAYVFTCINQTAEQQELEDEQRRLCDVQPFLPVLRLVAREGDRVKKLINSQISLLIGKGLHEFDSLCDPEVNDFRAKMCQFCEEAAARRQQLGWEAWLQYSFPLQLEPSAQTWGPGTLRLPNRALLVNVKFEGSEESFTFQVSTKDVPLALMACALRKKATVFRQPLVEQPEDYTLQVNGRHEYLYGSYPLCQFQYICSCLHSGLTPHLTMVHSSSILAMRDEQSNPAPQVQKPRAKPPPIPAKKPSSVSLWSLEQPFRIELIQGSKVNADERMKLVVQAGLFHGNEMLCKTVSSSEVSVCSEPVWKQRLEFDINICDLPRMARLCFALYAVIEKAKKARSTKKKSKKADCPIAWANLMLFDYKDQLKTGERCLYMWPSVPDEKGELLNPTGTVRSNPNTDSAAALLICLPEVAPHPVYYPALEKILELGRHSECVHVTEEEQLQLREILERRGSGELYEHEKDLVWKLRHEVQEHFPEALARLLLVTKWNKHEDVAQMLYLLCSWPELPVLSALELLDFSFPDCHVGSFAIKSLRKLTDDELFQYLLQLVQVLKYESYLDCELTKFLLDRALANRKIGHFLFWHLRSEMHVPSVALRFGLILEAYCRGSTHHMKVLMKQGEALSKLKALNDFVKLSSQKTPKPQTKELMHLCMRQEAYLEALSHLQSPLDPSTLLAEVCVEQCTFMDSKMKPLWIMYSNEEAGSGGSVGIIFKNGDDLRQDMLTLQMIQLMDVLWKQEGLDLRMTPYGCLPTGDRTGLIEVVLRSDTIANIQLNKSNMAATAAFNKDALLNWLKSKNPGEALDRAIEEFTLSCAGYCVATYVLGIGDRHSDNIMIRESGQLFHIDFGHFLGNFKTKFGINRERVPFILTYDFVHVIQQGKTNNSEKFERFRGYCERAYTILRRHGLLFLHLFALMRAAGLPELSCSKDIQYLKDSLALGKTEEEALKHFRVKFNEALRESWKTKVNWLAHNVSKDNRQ
Chain of PI3Kδ (P27986 whole entry partner): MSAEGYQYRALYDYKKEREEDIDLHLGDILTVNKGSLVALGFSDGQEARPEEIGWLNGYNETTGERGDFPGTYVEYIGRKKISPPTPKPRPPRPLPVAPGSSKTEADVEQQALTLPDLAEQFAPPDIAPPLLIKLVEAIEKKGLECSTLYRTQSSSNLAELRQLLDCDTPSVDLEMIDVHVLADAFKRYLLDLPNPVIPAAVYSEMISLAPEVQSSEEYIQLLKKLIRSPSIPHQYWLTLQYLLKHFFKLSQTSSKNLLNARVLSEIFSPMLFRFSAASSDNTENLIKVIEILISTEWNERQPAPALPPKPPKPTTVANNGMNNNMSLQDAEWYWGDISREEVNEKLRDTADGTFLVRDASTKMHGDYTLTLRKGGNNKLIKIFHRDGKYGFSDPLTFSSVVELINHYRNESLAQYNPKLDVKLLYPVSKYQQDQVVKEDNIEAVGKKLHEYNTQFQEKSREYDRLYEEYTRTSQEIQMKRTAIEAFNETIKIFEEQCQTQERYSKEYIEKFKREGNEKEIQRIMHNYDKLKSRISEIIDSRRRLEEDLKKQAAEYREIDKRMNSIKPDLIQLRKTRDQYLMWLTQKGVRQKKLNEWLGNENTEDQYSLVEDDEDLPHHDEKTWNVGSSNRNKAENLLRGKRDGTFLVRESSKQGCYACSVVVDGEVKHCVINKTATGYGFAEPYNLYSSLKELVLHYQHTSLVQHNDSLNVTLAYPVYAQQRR
Description: PI3K δ and γ signaling in basophils manifested by an alteration of anti-FcεR1 or fMLP induced CD63 expression is a useful pharmacodynamic marker determined using the Flow2CAST® kit (Buhlmann Laboratories, Switzerland). The test procedure involves the following steps: • Mix the anti-coagulated blood sample by inverting the venipuncture tube several times; • Prepare fresh and pyrogen-free 3.5 ml polypropylene or polystyrene tubes suitable for Flow Cytometry measurements; • Add 49 μl of patient's whole blood to each tube; • Add 1 μl of 10% DMSO (background) or test compound (10% DMSO) to the assigned tubes and mix gently. Incubate at room temperature for 15 minutes; • Pipet 50 μl of the Stimulation buffer (background) or anti-FcεRI Ab or fMLP to each tube; • Add 100 μl of Stimulation Buffer to each tube; • Mix gently. Add 20 μl Staining Reagent (1:1 mix of FITC-CD63 and PE-CCR3) to each tube; • Mix gently, cover the tubes and incubate for 15 minutes at 37° C. in a water bath. […]
Percent CD63 positive cells within the gated basophil population were determined in different treatment groups and normalized to vehicle control.

SMILES: COc1ccc(-c2nn([C@@H](C)c3oc4cccc(F)c4c(=O)c3-c3cccc(F)c3)c3ncnc(N)c23)cc1NS(C)(=O)=O [Compound A1, (S)—N-(5-(4-amino-1-(1-(5-fluoro-3-(3-fluorophenyl)-4-oxo-4H-chromen-2-yl)ethyl)-1H-pyrazolo[3,4-d]pyrimidin-3-yl)-2-methoxyphenyl)methanesulfonamide]
- fraction unbound at 4 h, 1 μM [1]: 0.0415
- Metabolic stability in liver microsomes (percent parent compound remaining), Mouse [2]: 85.9%
- inhibition of neutrophil infiltration into the lungs compared to the control group (Female Wistar rats [3]): 65.29%
- inhibition of cartilage (histopathology of all the hind and fore paws) (Female Wistar rats [4]): 46.51%
- inhibition of inflammation (histopathology of all the hind and fore paws) (Female Wistar rats [4]): 58.3%
- inhibition of pannus (histopathology of all the hind and fore paws) (Female Wistar rats [4]): 49.18%
- reducing ankle diameter (Female Wistar rats [4]): significant efficacy
- reducing the average paw volumes of both the hind paws (Female Wistar rats [4]): significant efficacy
- reduction of the clinical score (Female Wistar rats [4]; prophylactic and therapeutic paws): significant efficacy
- Metabolic stability in liver microsomes (percent parent compound remaining), Monkey [5]: 78.8%
- EC50 (PI3Kδ): < 30 nM
